Assay results as given in a melting point compilation (Tetko et al.; mined from patent text by program, amines drawn as free bases though some values may be those of a salt).

Compound | melting point [°C]
ClC(c1ccccc1)(c1ccccc1)c1ccncc1 | 84.5 to 86.5
Cc1cc(C=O)c2ccccc2c1O | 160 to 161
COC(=O)Nc1nc2ccccc2n1C(=O)NC1CC(C)(C)CC(C)(N(C)C(=O)n2c(NC(=O)OC)nc3ccccc32)C1 (stereo unspecified) | 82 to 83
Cc1nccn1CC1CCc2c(c3ccccc3n2C)/C1=N/O (stereo unspecified) | 231 to 233
O=C(NCCCCCCCCCCCCNC(=O)c1ccc(OC(F)(F)F)cc1)c1ccc(OC(F)(F)F)cc1 | 158 to 159
OC(CNc1ncnc2nc[nH]c12)CN1CCN(C(c2ccc(F)cc2)c2ccc(F)cc2)CC1 (stereo unspecified) | 140 to 170
COC(=O)CC(c1ccc(F)cc1)C(C(=O)OC)C(=O)OC (stereo unspecified) | 75 to 76
CC(C)c1ccc(C(=O)NNC(=O)c2ccc(C(=O)O)cc2)cc1 | 235 to 237
CNC(=O)Nc1cc(C(C)(C)C)c2c(c1)C(C)(C)CS2 | > 150
O=C1Cc2cccc(Oc3ccccc3)c2O1 | 60 to 61
Cc1ccnc2c1C(=O)CC(c1ccco1)C2 (stereo unspecified) | 70 to 71
Cc1nc(N2CCN(CC3CC3)C2=O)sc1C(=O)NCc1ccccn1 | 148 to 151
c1ccc2sc(-c3nc(COc4ccc(CCCn5ccnc5)cc4)co3)cc2c1 | 149 to 150
O=Cc1c[nH]c(Cc2ccccc2)n1 | 130 to 136
C[C@@H](O)CNC(=O)N1CC(c2ccc(C(F)(F)F)cc2)C1 | 107 to 108
CNC(=O)n1nc(-c2ccc(Cl)cc2)nc1N | 193 to 196
CCOC(=O)c1cc2cc([N+](=O)[O-])cc(C)c2o1 | 125 to 126
CS(=O)(=O)Nc1ccc(C=CC(=O)N2CCc3c([nH]c4ccccc34)C2c2ccc3c(c2)OCO3)cc1 (stereo unspecified) | 203
Cc1nnc2n1-c1ccc(Cl)cc1C(N1CCCC1)=NC2 | 222 to 225
N#Cc1cccc(Nc2nc(N)c(C(=O)c3ccccc3C#N)s2)c1 | 235 to 236
COc1ccc(SC(C(=O)O)c2ccccc2)c(Cl)c1Cl (stereo unspecified) | 180 to 182
O=C(/C=C/c1ccc(Cl)cc1)N1CCN(C(=O)c2cc(C(F)(F)F)cc(C(F)(F)F)c2)[C@H](Cc2c[nH]c3ccccc23)C1 | 125 to 138
C(=C1/CCCc2ccccc21)/c1cnc[nH]1 | 136 to 138
CC(C)CC(C#N)NC(=O)C(CC(C)C)NC(=O)c1ccc(Cn2ccnc2)cc1 (stereo unspecified) | 100 to 103

Compound | melting point [°C]
O=C(O)c1cc(S(=O)(=O)NCCc2ccccc2Cl)ccc1Cl | 175 to 177
CC(C)(C)c1cc(CN)nn1-c1ccc(S(C)(=O)=O)cc1 | 138 to 145
CN(CCCN)S(=O)(=O)CCC(F)(F)C(F)(F)C(F)(F)C(F)(F)C(F)(F)C(F)(F)F | 135
N=C1N(Cc2ccc(Cl)nc2)CCN1[N+](=O)[O-] | 81
Cc1cc(NC2=NCCN2C)n(C)n1 | 128 to 130
Cc1cc(C2(C(F)(F)F)CN(c3ccc(C(=O)NCC(F)(F)F)cc3)CO2)ccc1F (stereo unspecified) | 151 to 152
CC1COc2c(F)c(F)cc3c2N1C(=O)C3=O (stereo unspecified) | 169 to 171
CN(C)C(=O)Nc1cnc(N(C)C)c(Cl)c1 | 139 to 141
CCCCCCCCCCCCCCCCSCC1(CNS(=O)(=O)CCCCl)CCCO1 (stereo unspecified) | 44.5 to 45.5
COC(=O)c1cccc(CN2CCN(c3nc(C)c(C(C)=O)s3)C2=O)c1 | 122 to 124
CCc1cc(CC)n2nccc2n1 | 43 to 44
OC(CCCN1CCc2c(c3cc(F)ccc3n2-c2ccc(F)cc2)C1)c1ccc(F)cc1 (stereo unspecified) | 145 to 149
CCOC(=O)c1cn(CC)c2nc(N3CCCC3)ncc2c1=O | 202
Cc1ccc(S(=O)(=O)N2[C@@H](CCc3nc(C4CC4)no3)CC[C@H]2c2ccc(F)cc2)cc1 (racemic) | 129
O=c1c(CCCc2ccncc2)cc2cccnc2n1-c1ccc(Cl)c([N+](=O)[O-])c1 | 136 to 137
Cn1ncnc1COc1nc2c(cc1-c1ccsc1)nnn2-c1ccccc1F | 133 to 135
O=C(c1cc(C(F)(F)F)cc(C(F)(F)F)c1)N1CCC2(CC1)C(=O)NCN2c1ccccc1 | 251
C=CCC(C(=O)N1C(=O)OCC1Cc1ccccc1)c1ccc(F)cc1 (stereo unspecified) | 103 to 104
Cc1ccc(C(=O)c2ccccc2F)cc1 | 73 to 74
CC(=O)Oc1cccc2c1C(=O)c1c(OC(C)=O)cc(-c3nnn[nH]3)cc1C2=O | 189 to 190
O=C1Nc2ccccc2C12COc1ccc3nonc3c12 (stereo unspecified) | > 220
Cc1cc2cc(C3(O)CCN(C)CC3)ccc2o1 | 118 to 120
COc1ccc(N2CC(=O)N(c3ccc(OC)nc3-c3ccc(N(C)C)cc3)CC2=O)cc1 | 138 to 139

Now from value to compound:

melting point [°C] | Compound
221 to 223 | O=c1c(CCc2cccnc2)cc2cccnc2n1-c1cccc([N+](=O)[O-])c1
202 to 204 | CC1(C)c2cccn2-c2cc(F)c(F)cc2N1S(=O)(=O)c1ccc(O)cc1
65 to 68 | CC(=O)SCCC(=O)[C@@H]1CCCC[C@H]1C(=O)O (relative stereo)
174 to 175 | COc1cc(C[C@@H](NC(C)=O)C(=O)O)ccc1OC(C)=O
102 to 103 | CCCCCNC1=CC(=O)c2c(OC)ccc(OC)c2C1=O
87 to 89 | Cc1cccc2ncn(C(C)C(O)(Cn3cncn3)c3ccc(F)cc3F)c(=O)c12 (stereo unspecified)
64 to 65 | CC1=C(Cc2ccc(C(C)C)cc2)C(=O)C2C=CC=CC2C1=O (stereo unspecified)
191 to 192 | O=C(N[C@H](Cc1ccc(C(F)(F)F)cc1)[C@@H](O)c1ccc(Oc2ccccc2)cc1)c1cccc2c1C=CCCC2 (racemic)
253 to 256 | COc1cc(-c2nc(-c3ccc(N(C)C)cc3)c(C)[nH]2)ccc1OC(C)=O
78 | Cc1cccc(OC(C)C)c1S(N)(=O)=O
34 to 36 | COCc1cccc(CC#N)c1[N+](=O)[O-]
222 to 223 | CN(C)C(=O)Nc1c(C(=O)c2ccccc2)[nH]c2cc(Cl)ccc12
> 300 | COc1cccc(OC)c1-c1cc2cnc(N)nc2nc1N
154 to 156 | COc1ccc(-c2cc(CO)c(=O)n(Cc3ccc(F)c(F)c3)n2)cc1F
109 to 111 | CC(C)N(Cc1ccc(Cl)cc1)C(=O)Nc1ccccc1
162 to 165 | CS(=O)(=O)OCc1cc(-c2ccc3occc3c2)nn(Cc2ccc(F)cc2)c1=O
144 to 146 | COc1ccc2c3c(c(=O)oc2c1)CN(Cc1ccc(Cl)c(Cl)c1)CC3
163 to 165 | COc1ccc2c(c1)COc1ccc(CC(=O)O)cc1C2=O
180 | Cc1cc(C)nc(NC(=O)NS(=O)(=O)c2ccccc2O)n1
252 | COc1ccc(C(=O)Nc2ccccc2)c2c1oc1ccc(NC(C)=O)cc12
144 to 146 | CC(=O)SCCC(=O)N1C(C(=O)O)CC(=O)N1c1ccccc1 (stereo unspecified)
154 to 155 | N=C(Nc1ccccc1I)Nc1cccc2ccccc12
166 to 167 | CC(C)(N)c1ccc(-c2nc(Nc3cccc(CCN4CCOCC4)c3)ncc2C#N)cc1
151 to 152 | NC(=O)N(O)CC1=NOC(c2ccc(F)cc2)C1 (stereo unspecified)
